From ChEMBL document CHEMBL1132133, “Synthesis and biological activity of a novel series of indole-derived PPARgamma agonists” (Bioorg Med Chem Lett, 1999)
Active and inactive are the calls of the source. No cut-off for these calls is given here.

What was measured:
[1] = molecular target: T1, Peroxisome proliferator-activated receptor delta (Homo sapiens, UniProt Q03181)
T1 sequence (Q03181 whole entry): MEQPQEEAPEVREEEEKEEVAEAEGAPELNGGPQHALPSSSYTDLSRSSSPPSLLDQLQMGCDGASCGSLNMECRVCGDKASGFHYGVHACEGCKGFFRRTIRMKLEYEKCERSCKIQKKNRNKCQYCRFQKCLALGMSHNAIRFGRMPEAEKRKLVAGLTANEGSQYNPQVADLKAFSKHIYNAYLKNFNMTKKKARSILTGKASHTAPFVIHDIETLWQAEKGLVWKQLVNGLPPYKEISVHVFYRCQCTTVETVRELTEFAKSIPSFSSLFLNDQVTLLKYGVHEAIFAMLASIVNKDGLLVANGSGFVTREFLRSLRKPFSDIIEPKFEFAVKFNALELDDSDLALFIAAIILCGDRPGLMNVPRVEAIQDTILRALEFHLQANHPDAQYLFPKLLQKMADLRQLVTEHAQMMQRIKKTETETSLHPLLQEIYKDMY

[2] = molecular target: T2, Peroxisome proliferator-activated receptor alpha (Homo sapiens, UniProt Q07869); assay: Binding affinity against Peroxisome Proliferator activated receptor alpha (PPAR alpha); Not active
T2 sequence (Q07869 whole entry): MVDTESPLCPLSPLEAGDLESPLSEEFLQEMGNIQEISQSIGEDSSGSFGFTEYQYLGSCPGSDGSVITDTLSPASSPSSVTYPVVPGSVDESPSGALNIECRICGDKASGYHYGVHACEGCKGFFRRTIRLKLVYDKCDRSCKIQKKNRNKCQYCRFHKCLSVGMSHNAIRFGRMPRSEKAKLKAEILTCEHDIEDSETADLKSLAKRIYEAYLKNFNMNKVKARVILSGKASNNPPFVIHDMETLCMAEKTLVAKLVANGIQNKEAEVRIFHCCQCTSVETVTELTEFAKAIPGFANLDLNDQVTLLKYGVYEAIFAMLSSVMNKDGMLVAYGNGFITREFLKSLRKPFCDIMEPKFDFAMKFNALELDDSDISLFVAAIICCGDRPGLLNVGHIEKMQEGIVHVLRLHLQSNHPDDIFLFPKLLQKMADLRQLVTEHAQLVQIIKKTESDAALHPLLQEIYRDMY

[3] = molecular target: T3, Peroxisome proliferator-activated receptor gamma (Homo sapiens, UniProt P37231)
T3 sequence (P37231 whole entry): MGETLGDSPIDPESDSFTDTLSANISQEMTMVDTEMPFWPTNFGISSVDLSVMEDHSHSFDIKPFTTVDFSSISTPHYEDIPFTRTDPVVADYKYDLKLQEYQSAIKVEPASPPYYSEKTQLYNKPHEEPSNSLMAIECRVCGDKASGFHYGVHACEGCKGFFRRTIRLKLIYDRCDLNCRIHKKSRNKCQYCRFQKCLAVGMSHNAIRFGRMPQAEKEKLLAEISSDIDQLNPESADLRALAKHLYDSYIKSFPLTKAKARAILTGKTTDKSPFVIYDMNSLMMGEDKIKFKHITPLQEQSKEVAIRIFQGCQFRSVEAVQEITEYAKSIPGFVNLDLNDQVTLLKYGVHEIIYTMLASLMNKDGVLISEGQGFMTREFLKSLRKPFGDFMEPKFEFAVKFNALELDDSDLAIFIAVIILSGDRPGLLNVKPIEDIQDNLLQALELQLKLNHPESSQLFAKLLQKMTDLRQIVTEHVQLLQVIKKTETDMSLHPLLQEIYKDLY

[4] = molecular target: T3, Peroxisome proliferator-activated receptor gamma; remark: listed apart in the source
[5] = molecular target: T4, Peroxisome proliferator-activated receptor gamma (Homo sapiens) (UniProt P37231); assay: Transcriptional activation of peroxisome proliferator activated receptor gamma activity; Inactive at 10e-4 M; format: functional
T4 sequence (whole entry): T3 sequence (P37231 whole entry)

[6] = Pharmacokinetic property (half life) in rat; format: ADME, organism-based; conditions: in vivo
[7] = Pharmacokinetic property (oral bioavailability) in rat (dose given as a suspension); format: ADME, organism-based; conditions: in vivo
[8] = Pharmacokinetic property (oral bioavailability) in rat (dose given as a solution); format: ADME, organism-based; conditions: in vivo
[9] = Pharmacokinetic property (total body clearance) in rat; format: ADME, organism-based; conditions: in vivo, read-out: CLtotal
[10] = molecular target: T3, Peroxisome proliferator-activated receptor gamma; assay: Binding affinity against human Peroxisome proliferator activated receptor gamma (PPAR gamma)
[11] = molecular target: T3, Peroxisome proliferator-activated receptor gamma; assay: Inhibitory concentration of the PPAR gamma)
[12] = molecular target: T4, Peroxisome proliferator-activated receptor gamma (Homo sapiens); assay: Binding affinity against Peroxisome proliferator activated receptor gamma (PPAR gamma); Inactive at 10e-4 M

For `CCc1ccc(CCOc2ccc(CC3SC(=O)NC3=O)cc2)nc1` (stereo unspecified) [PIOGLITAZONE], the Ki [1] was “Not Active” and the Ki [2] was “Not Active”.
With `Cn1c(-c2ccccc2)c(CCc2ccccc2)c2cc(OCC(=O)O)ccc21` the Ki [1] was “Not Active”, the Ki [2] was “Not Active” and the EC50 [3] was over 10000 nM.
In the case of `Cc1c(C)c2c(c(C)c1O)CCC(C)(COc1ccc(CC3SC(=O)NC3=O)cc1)O2` (stereo unspecified) [TROGLITAZONE], the Ki [1] is reported as “Not Active” and the Ki [2] is reported as “Not Active”.
For `Cn1c(-c2ccccc2)c(CCc2ccccc2)c2cc(CC(=O)O)ccc21`, the Ki [1] was “Not Active”, the Ki [4] was 550 nM and the Ki [2] was “Not Active”. For the same compound, the EC50 [3] was 5620 nM.
For `O=C(O)Cc1ccc2[nH]c(-c3ccccc3)cc2c1`, the Ki [1] was “Not Active”, the Ki [2] was “Not Active” and the “Log EC50” value [5] was “inactive”.
In the case of `O=C(O)Cc1ccc2[nH]cc(CCc3ccccc3)c2c1`, the Ki [1] is reported as “Not Active”, the Ki [4] is reported as over 10000 nM and the Ki [2] is reported as “Not Active”. The EC50 [3] was over 10000 nM.
In the case of `O=C(O)Cc1ccc2[nH]c(-c3ccccc3)c(CCc3ccccc3)c2c1`, the Ki [1] is reported as “Not Active”, the Ki [2] is reported as “Not Active” and the EC50 [3] is reported as 309 nM.
With `CCCc1c(-c2ccccc2)[nH]c2ccc(C(=O)O)cc12` the Ki [1] was “Not Active”, the Ki [2] was “Not Active” and the EC50 [3] was over 10000 nM.
For `O=C1CSC(=O)N1Cc1ccc2[nH]c(-c3ccccc3)c(CCc3ccccc3)c2c1`, the Ki [1] was “Not Active”, the Ki [2] was “Not Active” and the EC50 [3] was over 10000 nM.
With `O=C(O)CCc1ccc2[nH]c(-c3ccccc3)c(CCc3ccccc3)c2c1` the Ki [1] was “Not Active”, the Ki [2] was “Not Active” and the EC50 [3] was 3020 nM.
With `COc1ccc(CCc2c(-c3ccccc3)[nH]c3ccc(CC(=O)O)cc23)cc1` the half-life [6] was 3.8 h, the bioavailability [7] was 73% and the bioavailability [8] was 78%. For the same compound, the Ki [1] was “Not Active”, the Ki [4] was 47.9 nM and the Ki [2] was “Not Active”. It also gave an EC50 [3] of 43.7 nM, a clearance [9] of 3 mL/min/kg and a Ki [10] of 50 nM. It also gave an IC50 [11] of 50 nM.
With `O=C(O)Cc1ccc2[nH]c(-c3ccc(F)cc3)c(CCc3ccc(F)cc3)c2c1` the Ki [1] was “Not Active”, the Ki [4] was 490 nM and the Ki [2] was “Not Active”. It also gave an EC50 [3] of 339 nM.
For `CN(CCOc1ccc(CC2SC(=O)NC2=O)cc1)c1ccccn1` (stereo unspecified) [ROSIGLITAZONE], the Ki [2] was “Not Active”.
For `O=C(O)Cc1ccc2[nH]c(-c3ccccc3)c(Cc3ccccc3)c2c1`, the Ki [1] was “Not Active”, the Ki [2] was “Not Active” and the EC50 [3] was over 10000 nM. For the same compound, the “Log Ki” value [12] was “inactive”.
In the case of `O=C(O)Cc1ccc2[nH]c(-c3ccccc3)c(-c3ccccc3)c2c1`, the Ki [1] is reported as “Not Active”, the Ki [4] is reported as over 10000 nM and the Ki [2] is reported as “Not Active”. For the same compound, the EC50 [3] was over 10000 nM.
For `CCCc1c(-c2ccccc2)[nH]c2ccc(CC(=O)O)cc12`, the Ki [1] was “Not Active”, the Ki [2] was “Not Active” and the EC50 [3] was 7080 nM.
